≈ marks a conversion by molar mass, not a printed value. Where two headings read alike, the source gives them in different places. Numbered stars: 1 amine (or outer) side, 2 acyl side, 3 side chain; on linkers, the order of the positions; unused ones are H or OH. Bridge positions count the residues as written; N and C are the ends. Square brackets hold non-standard residues; d marks the D form. Peptide text beside a SMILES is read from it. * marks the point of attachment. Piperazine(2S-CO,4-Me) = CN1CCN[C@H](C(=O)O)C1; Phe(3,5-F2) = N[C@@H](Cc1cc(F)cc(F)c1)C(=O)O; NH(1-Me-indolin-5-yl) = CN1CCc2cc(N*)ccc21; X6 = O=C([C@@H]1CS(=O)(=O)CCN1[*:1])[*:2]; Phe(3-Cl) = N[C@@H](Cc1cccc(Cl)c1)C(=O)O; Morpholine(3S-CO) = O=C(O)[C@@H]1COCCN1; Phe(3-Me) = Cc1cccc(C[C@H](N)C(=O)O)c1; Pro(4S-Me) = C[C@@H]1CN[C@H](C(=O)O)C1; NH(4-Cl-2-F-phenyl) = Fc1cc(Cl)ccc1N*; Pro(4R-Me) = C[C@H]1CN[C@H](C(=O)O)C1; Propanoyl(3-NMe2) = CN(C)CCC(=O)*; X1 = O=C([C@@H]1CSCCN1[*:1])[*:2]; Hyp = O=C(O)[C@@H]1C[C@@H](O)CN1; NH(4-Me-phenyl) = Cc1ccc(N*)cc1; aThr = C[C@H](O)[C@H](N)C(=O)O; Pip = O=C(O)[C@@H]1CCCCN1; 4Abz = Nc1ccc(C(=O)O)cc1; CO = O=C([*:1])[*:2]; X2 = Fc1cc(N*)ccc1Cl
Key:
[1] = Solubility determination; type: physicochemical; conditions: for solubility kinetic at 10 min: 22 °C, aqueous buffer, kinetic from dmso stock
Summary of the method: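 DMSO stock spiked into DPBS at 100 µM final, in triplicate, shaken 10 min, then centrifuged 20 min at 22 °C. Supernatant quantified by UPLC-UV and single-ion-recording MS against DMSO calibration standards (0.098–100 µM), using 1/x²-weighted linear regression.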

[2] = Plasma protein binding, rapid equilibrium dialysis; type: in vitro ADME, human; conditions: 10 μM
Summary of the method: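 Compound spiked at 10 μM (0.1% DMSO) into human plasma, dialysed against DPBS pH 7.4 across 8 K MWCO RED membrane for 4 h at 37 °C with shaking. Both chambers quantified by LC-MS against warfarin internal standard; % free = buffer/plasma concentration ×100, % bound = 100 − % free.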

[3] = Microsomal metabolic stability; type: in vitro ADME, human
[4] = solubility in DPBS, 100 μM test samples, LCMS, read-out: LCMS
[5] = plasma binding, % Bound, human plasma
[6] = microsomal metabolic stability half-life, human liver microsomes

Compound	solubility kinetic at 10 min [1, 4] [µM]	μsol (μM) ([1]; solubility)	μsol (μg/mL) ([1]; solubility) [µg/mL]	Human [2, 5] [%]	Human [3, 6]	μsol (μM) [1]	solubility kinetic at 10 min [1] [µM]	Human ([2]; human, 4 h, pH 7.4) [%]	Human ([3]; human, pH 7.4)
C[C@@H]1C[C@H]2C(=O)O[C@@H](C)[C@H](NC(=O)[C@H](Cc3cc(F)cc(F)c3)NC(=O)Nc3ccc4c(c3)CCN4C)C(=O)N3CCC[C@H]3C(=O)N3CCOC[C@H]3C(=O)N[C@@H](C)C(=O)N2C1 [Compound 32] ({NH(1-Me-indolin-5-yl)-CO}-[Phe(3,5-F2)][aThr]P[Morpholine(3S-CO)]A[Pro(4R-Me)]; ester 2-C)	71.5 ± 1.5 (≈ 60.8 µg/mL)	73.4 ± 3.4 µM	62.5 ± 2.1	83.0 ± 3.0	2.66 ± .66 h	–	–	–	–
C[C@@H]1C[C@H]2C(=O)O[C@@H](C)[C@H](NC(=O)[C@H](Cc3cccc(Cl)c3)NC(=O)Nc3ccc(Cl)cc3F)C(=O)N3CCC[C@H]3C(=O)N3CCN(C)C[C@H]3C(=O)N[C@@H](C)C(=O)N2C1 [Compound 33] ({NH(4-Cl-2-F-phenyl)-CO}-[Phe(3-Cl)][aThr]P[Piperazine(2S-CO,4-Me)]A[Pro(4R-Me)]; ester 2-C)	–	–	–	–	–	17.2 ± 7.2 µM	12.8 ± 2.8 (≈ 11 µg/mL)	99.1 ± 9.1	9.25 ± .255 h
C[C@@H]1C[C@H]2C(=O)OC[C@H](NC(=O)[C@H](Cc3cc(F)cc(F)c3)NC(=O)Nc3ccc(Cl)cc3F)C(=O)N3CCC[C@H]3C(=O)N3CCN(C)C[C@H]3C(=O)N[C@@H](C)C(=O)N2C1 [Compound 34] ({NH(4-Cl-2-F-phenyl)-CO}-[Phe(3,5-F2)]SP[Piperazine(2S-CO,4-Me)]A[Pro(4R-Me)]; ester 2-C)	–	–	–	–	–	38.7 ± 8.7 µM	53.6 ± 3.58 (≈ 45.4 µg/mL)	96.5 ± 6.5	0.77 ± .775 h
Cc1cccc(C[C@H](NC(=O)Nc2ccc(Cl)c(F)c2)C(=O)N[C@@H]2C(=O)N3CCC[C@H]3C(=O)N3CCCC[C@H]3C(=O)N[C@@H](C)C(=O)N3C[C@H](C)C[C@H]3C(=O)O[C@H]2C)c1 [Compound 35, (S)-2-(3-(4-CHLORO-3-FLUOROPHENYL)UREIDO)-3-(M-TOLYL)-N-((2R,6S,8AS,14AS,20S,21S,23AS)-2,6,21-TRIMETHYL-5,8,14,19,23-PENTAOXOOCTADECAHYDRO-1H,5H,14H,19H-PYRIDO[2,1-I]DIPYRROLO[2,1-C:2′,1′-L][1]OXA[4,7,10,13]TETRAAZACYCLOHEXADECIN-20-YL)PROPANAMIDE] ({X2-CO}-[Phe(3-Me)][aThr]P[Pip]A[Pro(4R-Me)]; ester 2-C)	–	–	–	–	–	0.9 ± .95 µM	0.002 ± 0.002 (≈ 0.00165 µg/mL)	99.9 ± 9.9	1.14 ± .145 h
CCOC(=O)c1ccc(NC(=O)N[C@@H](Cc2cccc(C)c2)C(=O)N[C@@H]2C(=O)N3C[C@H](O)C[C@H]3C(=O)N3CCCC[C@H]3C(=O)N[C@@H](C)C(=O)N3C[C@H](C)C[C@H]3C(=O)O[C@H]2C)cc1 [Compound 36, ETHYL 4-(3-((S)-1-(((2R,6S,8AS,14AS,16R,20S,21S,23AS)-16-HYDROXY-2,6,21-TRIMETHYL-5,8,14,19,23-PENTAOXOOCTADECAHYDRO-1H,5H,14H,19H-PYRIDO[2,1-I]DIPYRROLO[2,1-C:2′,1′-L][1]OXA[4,7,10,13]TETRAAZACYCLOHEXADECIN-20-YL)AMINO)-1-OXO-3-(M-TOLYL)PROPAN-2-YL)UREIDO)BENZOATE] ({OEt-4Abz-CO}-[Phe(3-Me)][aThr][Hyp][Pip]A[Pro(4R-Me)]; ester 2-C)	8.17 ± 0.167 (≈ 7.02 µg/mL)	6.4 ± .40 µM	–	98.3 ± 8.3	4.81 ± .815 h	–	–	–	–
Cc1cccc(C[C@H](NC(=O)Nc2ccc(Cl)cc2F)C(=O)N[C@@H]2C(=O)N3CCC[C@H]3C(=O)N3CCSC[C@H]3C(=O)N[C@@H](C)C(=O)N3C[C@H](C)C[C@H]3C(=O)O[C@H]2C)c1 [Compound 38, (S)-2-(3-(4-CHLORO-2-FLUOROPHENYL)UREIDO)-3-(M-TOLYL)-N-((6AS,12S,13S,15AS,17R,21S,23AR)-13,17,21-TRIMETHYL-6,11,15,20,23-PENTAOXOOCTADECAHYDRO-6H,11H,15H-DIPYRROLO[2,1-C:2′,1′-L][1,4]THIAZINO[3,4-I][1]OXA[4,7,10,13]TETRAAZACYCLOHEXADECIN-12-YL)PROPANAMIDE] ({NH(4-Cl-2-F-phenyl)-CO}-[Phe(3-Me)][aThr]P[X1]A[Pro(4R-Me)]; ester 2-C)	–	–	–	–	–	1.7 ± .70 µM	0.011 ± 0.011 (≈ 0.00927 µg/mL)	99.5 ± 9.5	1.00 ± .003 h
Cc1cccc(C[C@H](NC(=O)Nc2ccc(Cl)cc2F)C(=O)N[C@@H]2C(=O)N3CCC[C@H]3C(=O)N3CCS(=O)(=O)C[C@H]3C(=O)N[C@@H](C)C(=O)N3C[C@H](C)C[C@H]3C(=O)O[C@H]2C)c1 [Compound 40, (S)-2-(3-(4-CHLORO-2-FLUOROPHENYL)UREIDO)-3-(M-TOLYL)-N-((6AS,12S,13S,15AS,17R,21S,23AR)-13,17,21-TRIMETHYL-2,2-DIOXIDO-6,11,15,20,23-PENTAOXOOCTADECAHYDRO-6H,11H,15H-DIPYRROLO[2,1-C:2′,1′-L][1,4]THIAZINO[3,4-I][1]OXA[4,7,10,13]TETRAAZACYCLOHEXADECIN-12-YL)PROPANAMIDE] ({NH(4-Cl-2-F-phenyl)-CO}-[Phe(3-Me)][aThr]P[X6]A[Pro(4R-Me)]; ester 2-C)	–	–	–	–	–	0 µM	2.21 ± 0.208 (≈ 1.93 µg/mL)	98.5 ± 8.5	0.62 ± .623 h
Cc1cccc(C[C@H](NC(=O)Nc2ccc(Cl)cc2F)C(=O)N[C@@H]2C(=O)N3C[C@H](O)C[C@H]3C(=O)N3CCSC[C@H]3C(=O)N[C@@H](C)C(=O)N3C[C@H](C)C[C@H]3C(=O)O[C@H]2C)c1 [Compound 41, (S)-2-(3-(4-CHLORO-2-FLUOROPHENYL)UREIDO)-N-((6AS,8R,12S,13S,15AS,17R,21S,23AR)-8-HYDROXY-13,17,21-TRIMETHYL-6,11,15,20,23-PENTAOXOOCTADECAHYDRO-6H,11H,15H-DIPYRROLO[2,1-C:2′,1′-L][1,4]THIAZINO[3,4-I][1]OXA[4,7,10,13]TETRAAZACYCLOHEXADECIN-12-YL)-3-(M-TOLYL)PROPANAMIDE] ({NH(4-Cl-2-F-phenyl)-CO}-[Phe(3-Me)][aThr][Hyp][X1]A[Pro(4R-Me)]; ester 2-C)	–	–	–	–	–	2.4 ± .40 µM	1.4 ± 0.4 (≈ 1.2 µg/mL)	99.7 ± 9.7	0.41 ± .413 h
Cc1ccc(NC(=O)N[C@@H](Cc2cccc(C)c2)C(=O)N[C@@H]2C(=O)N3C[C@H](O)C[C@H]3C(=O)N3CCSC[C@H]3C(=O)N[C@@H](C)C(=O)N3C[C@H](C)C[C@H]3C(=O)O[C@H]2C)cc1 [Compound 42, (S)—N-((6AS,8R,12S,13S,15AS,17R,21S,23AR)-8-HYDROXY-13,17,21-TRIMETHYL-6,11,15,20,23-PENTAOXOOCTADECAHYDRO-6H,11H,15H-DIPYRROLO[2,1-C:2′,1′-L][1,4]THIAZINO[3,4-I][1]OXA[4,7,10,13]TETRAAZACYCLOHEXADECIN-12-YL)-3-(M-TOLYL)-2-(3-(P-TOLYL)UREIDO)PROPANAMIDE] ({NH(4-Me-phenyl)-CO}-[Phe(3-Me)][aThr][Hyp][X1]A[Pro(4R-Me)]; ester 2-C)	29.2 ± 9.2 (≈ 23.9 µg/mL)	29.7 ± 9.7 µM	–	98.1 ± 8.1	0.81 ± .813 h	–	–	–	–
Cc1ccc(NC(=O)N[C@@H](Cc2cccc(C)c2)C(=O)N[C@@H]2C(=O)N3CCC[C@H]3C(=O)N3CCCC[C@H]3C(=O)N[C@@H](C)C(=O)N3C[C@@H](C)C[C@H]3C(=O)O[C@H]2C)cc1 [Compound 45, (S)-3-(M-TOLYL)-2-(3-(P-TOLYL)UREIDO)-N-((2S,6S,8AS,14AS,20S,21S,23AS)-2,6,21-TRIMETHYL-5,8,14,19,23-PENTAOXOOCTADECAHYDRO-1H,5H,14H,19H-PYRIDO[2,1-I]DIPYRROLO[2,1-C:2′,1′-L][1]OXA[4,7,10,13]TETRAAZACYCLOHEXADECIN-20-YL)PROPANAMIDE] ({NH(4-Me-phenyl)-CO}-[Phe(3-Me)][aThr]P[Pip]A[Pro(4S-Me)]; ester 2-C)	44.5 ± 2.7 (≈ 35 µg/mL)	44.7 ± 4.2 µM	–	97.3 ± 0.3	2.77 ± 0.3 h	–	–	–	–
Cc1cccc(C[C@H](NC(=O)Nc2ccc(Cl)cc2F)C(=O)N[C@@H]2C(=O)N3C[C@H](OC(=O)CCN(C)C)C[C@H]3C(=O)N3CCCC[C@H]3C(=O)N[C@@H](C)C(=O)N3C[C@H](C)C[C@H]3C(=O)O[C@H]2C)c1 [Compound 46, (2R,6S,8AS,14AS,16R,20S,21S,23AS)-20-((S)-2-(3-(4-CHLORO-2-FLUOROPHENYL)UREIDO)-3-(M-TOLYL)PROPANAMIDO)-2,6,21-TRIMETHYL-5,8,14,19,23-PENTAOXOOCTADECAHYDRO-1H,5H,14H,19H-PYRIDO[2,1-I]DIPYRROLO[2,1-C:2′,1′-L][1]OXA[4,7,10,13]TETRAAZACYCLOHEXADECIN-16-YL 3-(DIMETHYLAMINO)PROPANOATE] ({NH(4-Cl-2-F-phenyl)-CO}-[Phe(3-Me)][aThr][Hyp](Propanoyl(3-NMe2))[Pip]A[Pro(4R-Me)]; ester 2-C)	–	–	–	–	–	12.1 ± 1.5 µM	195 ± 27 (≈ 183 µg/mL)	99.5 ± 0.3	2.09 ± 0.14 h
Cc1ccc(NC(=O)N[C@@H](Cc2cccc(C)c2)C(=O)N[C@H]2COC(=O)[C@@H]3CCCN3C(=O)[C@H](C)NC(=O)[C@@H]3CCCCN3C(=O)[C@@H]3C[C@@H](O)CN3C2=O)cc1 [Compound 49, (S)—N-((6S,8AS,14AS,16R,20S,23AS)-16-HYDROXY-6-METHYL-5,8,14,19,23-PENTAOXOOCTADECAHYDRO-1H,5H,14H,19H-PYRIDO[2,1-I]DIPYRROLO[2,1-C:2′,1′-L][1]OXA[4,7,10,13]TETRAAZACYCLOHEXADECIN-20-YL)-3-(M-TOLYL)-2-(3-(P-TOLYL)UREIDO)PROPANAMIDE]	17 ± 6.97 (≈ 13.1 µg/mL)	8.5 ± .51 µM	–	98.7 ± 8.7	0.81 ± .813 h	–	–	–	–

Reference: patent US10570179B2, “Substituted urea depsipeptide analogs as activators of the CLPP endopeptidase” (priority 2016, dated 2020)
